Assay results reported in ChEMBL document CHEMBL5212743, “Selectivity Literature for EUbOPEN Chemogenomics Library wave 3” (2023).
One block for each molecule: values may come before it.

Legend:
[1] = molecular target: T1, Aurora kinase C (Homo sapiens) (UniProt Q9UQB9); assay: Selectivity interaction (KinomeScan (DiscoverX)) EUB0000723a AURKC; settings: at 1 µM
T1 sequence (whole entry): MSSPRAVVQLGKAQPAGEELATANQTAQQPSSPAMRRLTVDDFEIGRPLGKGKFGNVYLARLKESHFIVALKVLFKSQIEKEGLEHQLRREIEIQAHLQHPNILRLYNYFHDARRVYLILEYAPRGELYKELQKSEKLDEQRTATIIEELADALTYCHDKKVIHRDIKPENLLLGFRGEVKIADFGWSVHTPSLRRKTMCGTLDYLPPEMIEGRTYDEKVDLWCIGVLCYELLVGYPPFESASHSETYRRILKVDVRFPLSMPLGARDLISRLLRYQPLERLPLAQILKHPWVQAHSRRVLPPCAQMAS

[2] = test system: Tyrosine-protein kinase ABL1 (Homo sapiens), P00519 [T315I]; assay: Selectivity interaction (KinomeScan (DiscoverX)) EUB0000723a ABL1; settings: at 1 µM
Aurora kinase C = Aurora kinase C (Homo sapiens, UniProt Q9UQB9); assay: Selectivity interaction (NanoBRET assay (HEK293T cells)) EUB0000723a AURKC
[3] = molecular target: Tyrosine-protein kinase ABL1 (Homo sapiens, UniProt P00519); assay: Selectivity interaction (NanoBRET assay (HEK293T cells)) EUB0000723a ABL1
[4] = molecular target: Phosphatidylinositol 4,5-bisphosphate 3-kinase catalytic subunit alpha isoform (Homo sapiens, UniProt P42336); assay: Selectivity interaction (KinomeScan (DiscoverX)) EUB0000714a PIK3CA; settings: at 100 nM
[5] = molecular target: High affinity nerve growth factor receptor (Homo sapiens, UniProt P04629); assay: Selectivity interaction (KinomeScan (DiscoverX)) EUB0000714a NTRK1; settings: at 100 nM
Sequence of High affinity nerve growth factor receptor (P04629 33-796 limits assumed): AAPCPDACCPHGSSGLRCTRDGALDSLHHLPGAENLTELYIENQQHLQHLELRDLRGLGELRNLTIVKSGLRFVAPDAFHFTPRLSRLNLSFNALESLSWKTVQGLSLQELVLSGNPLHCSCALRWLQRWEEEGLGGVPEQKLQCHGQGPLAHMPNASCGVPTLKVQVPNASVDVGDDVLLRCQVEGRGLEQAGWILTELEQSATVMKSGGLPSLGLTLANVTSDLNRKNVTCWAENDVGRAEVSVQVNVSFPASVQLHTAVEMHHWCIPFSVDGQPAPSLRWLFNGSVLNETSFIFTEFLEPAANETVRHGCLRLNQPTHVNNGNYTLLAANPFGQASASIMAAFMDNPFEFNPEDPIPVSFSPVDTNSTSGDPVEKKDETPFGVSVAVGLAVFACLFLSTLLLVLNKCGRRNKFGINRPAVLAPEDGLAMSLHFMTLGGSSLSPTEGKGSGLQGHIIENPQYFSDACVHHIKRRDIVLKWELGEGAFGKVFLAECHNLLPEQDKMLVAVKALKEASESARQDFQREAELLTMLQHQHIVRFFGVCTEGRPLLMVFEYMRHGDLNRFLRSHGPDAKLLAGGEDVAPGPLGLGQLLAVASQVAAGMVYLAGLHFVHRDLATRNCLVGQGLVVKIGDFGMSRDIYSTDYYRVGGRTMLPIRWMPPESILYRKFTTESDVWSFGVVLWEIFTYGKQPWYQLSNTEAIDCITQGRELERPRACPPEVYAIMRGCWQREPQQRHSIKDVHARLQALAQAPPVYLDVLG

Histamine H3 receptor = Histamine H3 receptor (Homo sapiens, UniProt Q9Y5N1); assay: Selectivity interaction (GPCR panel (PDSP screen)) EUB0000714a HRH3
[6] = molecular target: T2, Dual specificity mitogen-activated protein kinase kinase 5 (Homo sapiens) (UniProt Q13163); assay: Selectivity interaction (KinomeScan (DiscoverX)) EUB0000714a MAP2K5; settings: at 100 nM
T2 sequence (whole entry): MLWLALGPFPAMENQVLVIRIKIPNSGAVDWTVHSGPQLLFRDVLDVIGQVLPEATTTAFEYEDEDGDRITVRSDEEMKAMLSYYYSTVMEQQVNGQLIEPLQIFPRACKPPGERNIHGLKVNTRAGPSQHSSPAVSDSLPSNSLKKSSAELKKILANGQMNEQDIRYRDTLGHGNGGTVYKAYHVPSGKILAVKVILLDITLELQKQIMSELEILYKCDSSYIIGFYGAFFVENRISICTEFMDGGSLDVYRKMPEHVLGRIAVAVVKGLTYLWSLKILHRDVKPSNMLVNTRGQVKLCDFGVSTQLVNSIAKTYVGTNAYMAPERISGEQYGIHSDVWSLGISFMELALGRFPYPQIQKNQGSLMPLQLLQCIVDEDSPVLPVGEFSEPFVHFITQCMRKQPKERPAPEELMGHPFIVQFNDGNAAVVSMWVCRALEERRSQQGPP

[7] = molecular target: Dual specificity mitogen-activated protein kinase kinase 3 (Homo sapiens) (UniProt P46734); assay: Selectivity interaction (KinomeScan (DiscoverX)) EUB0000714a MAP2K3; settings: at 100 nM
[8] = molecular target: 5-hydroxytryptamine receptor 7 (Homo sapiens, UniProt P34969); assay: Selectivity interaction (GPCR panel (PDSP screen)) EUB0000252b HTR7
[9] = molecular target: Serine/threonine-protein kinase WNK3 (Homo sapiens) (UniProt Q9BYP7); assay: Selectivity interaction (KinomeScan (DiscoverX)) EUB0000704a WNK3; settings: at 1 µM
[10] = molecular target: Serine/threonine-protein kinase WNK4 (Homo sapiens) (UniProt Q96J92); assay: Selectivity interaction (KinomeScan (DiscoverX)) EUB0000704a WNK4; settings: at 1 µM
[11] = molecular target: T3, Gamma-aminobutyric acid receptor subunit alpha-1 (Homo sapiens, UniProt P14867); assay: Selectivity interaction (GPCR panel (PDSP screen)) EUB0000704a GABRA1
T3 sequence (P14867 whole entry): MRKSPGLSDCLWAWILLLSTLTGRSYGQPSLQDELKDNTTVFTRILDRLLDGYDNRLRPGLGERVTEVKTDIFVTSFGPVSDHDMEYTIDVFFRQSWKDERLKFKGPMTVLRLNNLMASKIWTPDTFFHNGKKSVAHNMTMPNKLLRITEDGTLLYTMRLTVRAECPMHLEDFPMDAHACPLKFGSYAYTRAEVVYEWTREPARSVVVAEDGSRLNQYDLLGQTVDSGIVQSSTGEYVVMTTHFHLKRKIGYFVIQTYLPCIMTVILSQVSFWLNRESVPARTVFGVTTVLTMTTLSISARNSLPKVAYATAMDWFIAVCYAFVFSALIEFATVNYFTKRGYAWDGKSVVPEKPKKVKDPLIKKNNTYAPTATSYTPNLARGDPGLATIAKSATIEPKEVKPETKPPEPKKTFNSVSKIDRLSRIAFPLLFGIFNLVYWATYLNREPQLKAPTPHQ

[12] = molecular target: Sodium-dependent dopamine transporter (Homo sapiens, UniProt Q01959); assay: Selectivity interaction (GPCR panel (PDSP screen)) EUB0000704a SLC6A3
[13] = molecular target: Protein kinase C alpha type (Homo sapiens) (UniProt P17252); assay: Selectivity interaction (KinomeScan (DiscoverX)) EUB0000704a PRKCA; settings: at 1 µM
[14] = molecular target: Mitogen-activated protein kinase 10 (Homo sapiens, UniProt P53779); assay: Selectivity interaction (KinomeScan (DiscoverX)) EUB0000704a MAPK10; settings: at 1 µM
[15] = molecular target: T4, Serine/threonine-protein kinase PLK1 (Homo sapiens, UniProt P53350); assay: Selectivity interaction (KinomeScan (DiscoverX)) EUB0000704a PLK1; settings: at 1 µM
T4 sequence (P53350 whole entry): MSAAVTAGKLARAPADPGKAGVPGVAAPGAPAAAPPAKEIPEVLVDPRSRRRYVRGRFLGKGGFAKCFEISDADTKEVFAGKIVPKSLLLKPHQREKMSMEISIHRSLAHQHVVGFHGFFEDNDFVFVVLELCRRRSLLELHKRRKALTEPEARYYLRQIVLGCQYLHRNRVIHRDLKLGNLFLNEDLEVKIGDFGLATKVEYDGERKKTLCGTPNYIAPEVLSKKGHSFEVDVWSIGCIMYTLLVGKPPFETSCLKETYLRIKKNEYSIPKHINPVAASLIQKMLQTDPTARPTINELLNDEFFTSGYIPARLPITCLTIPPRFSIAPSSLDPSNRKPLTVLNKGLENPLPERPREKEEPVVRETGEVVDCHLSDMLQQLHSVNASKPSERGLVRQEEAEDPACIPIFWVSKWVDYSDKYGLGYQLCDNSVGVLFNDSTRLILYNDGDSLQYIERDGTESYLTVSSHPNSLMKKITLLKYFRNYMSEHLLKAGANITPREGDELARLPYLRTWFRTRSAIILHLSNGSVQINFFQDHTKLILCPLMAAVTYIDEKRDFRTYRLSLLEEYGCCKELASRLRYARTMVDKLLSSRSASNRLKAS

[16] = molecular target: Casein kinase II subunit alpha (Homo sapiens, UniProt P68400); assay: Selectivity interaction (Kinase panel (radiometric kinase assay)) EUB0000677a CSNK2A1
[17] = molecular target: T4, Serine/threonine-protein kinase PLK1; settings: at 1 µM
[18] = test system: T5, Receptor-type tyrosine-protein kinase FLT3 (Homo sapiens), P36888 [D835Y]; settings: at 1 µM
T5 sequence (whole entry): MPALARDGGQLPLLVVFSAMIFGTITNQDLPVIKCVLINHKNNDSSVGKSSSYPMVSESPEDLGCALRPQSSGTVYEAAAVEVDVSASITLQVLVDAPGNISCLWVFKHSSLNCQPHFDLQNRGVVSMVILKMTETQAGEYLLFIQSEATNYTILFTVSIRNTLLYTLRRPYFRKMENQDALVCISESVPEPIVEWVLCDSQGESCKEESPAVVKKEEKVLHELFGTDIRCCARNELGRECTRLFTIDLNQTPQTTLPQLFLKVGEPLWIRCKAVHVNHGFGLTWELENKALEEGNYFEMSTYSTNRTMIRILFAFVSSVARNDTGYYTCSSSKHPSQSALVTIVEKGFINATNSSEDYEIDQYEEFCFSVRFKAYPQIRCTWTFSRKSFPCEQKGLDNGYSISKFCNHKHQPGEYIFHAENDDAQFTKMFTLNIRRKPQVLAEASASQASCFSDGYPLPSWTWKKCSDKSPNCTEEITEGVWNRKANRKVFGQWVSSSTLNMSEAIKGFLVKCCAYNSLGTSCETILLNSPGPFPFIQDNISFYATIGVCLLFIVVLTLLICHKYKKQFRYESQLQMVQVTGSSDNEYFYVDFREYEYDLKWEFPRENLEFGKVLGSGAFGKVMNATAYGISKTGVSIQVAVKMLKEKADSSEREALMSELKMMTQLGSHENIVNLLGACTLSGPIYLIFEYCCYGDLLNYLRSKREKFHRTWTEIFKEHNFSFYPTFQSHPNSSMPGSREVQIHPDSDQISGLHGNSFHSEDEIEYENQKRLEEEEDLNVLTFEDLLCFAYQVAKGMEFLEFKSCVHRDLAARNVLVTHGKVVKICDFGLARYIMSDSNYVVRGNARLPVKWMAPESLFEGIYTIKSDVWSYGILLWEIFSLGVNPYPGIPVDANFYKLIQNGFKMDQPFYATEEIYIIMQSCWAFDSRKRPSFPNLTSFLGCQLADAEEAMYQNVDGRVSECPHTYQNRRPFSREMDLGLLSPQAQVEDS

[19] = molecular target: Cyclin-dependent kinase 9 (Homo sapiens) (UniProt P50750); assay: Selectivity interaction (Kinase Profiler (Millipore)) EUB0000677a CDK9; settings: at 1 µM
Sequence of Cyclin-dependent kinase 9 (Homo sapiens) (P50750 whole entry): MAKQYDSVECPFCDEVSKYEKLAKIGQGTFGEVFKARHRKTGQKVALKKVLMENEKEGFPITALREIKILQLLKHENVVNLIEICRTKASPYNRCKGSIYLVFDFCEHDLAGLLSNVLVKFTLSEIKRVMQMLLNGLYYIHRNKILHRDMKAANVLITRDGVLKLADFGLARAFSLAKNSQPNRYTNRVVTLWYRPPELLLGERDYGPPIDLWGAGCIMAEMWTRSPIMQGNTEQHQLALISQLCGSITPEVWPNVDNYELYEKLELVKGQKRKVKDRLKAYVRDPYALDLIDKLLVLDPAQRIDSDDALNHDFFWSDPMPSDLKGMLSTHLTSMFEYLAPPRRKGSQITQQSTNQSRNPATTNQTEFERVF

[20] = molecular target: T6, Alpha-2C adrenergic receptor (Homo sapiens, UniProt P18825); assay: Selectivity interaction (GPCR panel (PDSP screen)) EUB0000316b ADRA2C
T6 sequence (P18825 whole entry): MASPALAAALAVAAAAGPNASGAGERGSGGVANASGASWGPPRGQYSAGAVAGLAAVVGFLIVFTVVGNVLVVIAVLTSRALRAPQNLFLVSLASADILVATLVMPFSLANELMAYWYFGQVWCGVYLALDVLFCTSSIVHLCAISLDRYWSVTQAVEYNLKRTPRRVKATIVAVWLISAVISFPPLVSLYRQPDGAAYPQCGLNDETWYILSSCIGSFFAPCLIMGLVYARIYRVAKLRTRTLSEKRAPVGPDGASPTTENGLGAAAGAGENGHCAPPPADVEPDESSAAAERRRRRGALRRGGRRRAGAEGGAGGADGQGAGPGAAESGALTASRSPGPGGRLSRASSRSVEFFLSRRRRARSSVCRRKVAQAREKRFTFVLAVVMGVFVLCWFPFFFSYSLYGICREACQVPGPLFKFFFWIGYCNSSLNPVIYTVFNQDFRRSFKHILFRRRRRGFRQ

[21] = molecular target: Serine/threonine-protein kinase WNK2 (Homo sapiens) (UniProt Q9Y3S1); assay: Selectivity interaction (KinomeScan (DiscoverX)) EUB0000316b WNK2; settings: at 1 µM
Sequence of Serine/threonine-protein kinase WNK2 (Homo sapiens) (Q9Y3S1 whole entry): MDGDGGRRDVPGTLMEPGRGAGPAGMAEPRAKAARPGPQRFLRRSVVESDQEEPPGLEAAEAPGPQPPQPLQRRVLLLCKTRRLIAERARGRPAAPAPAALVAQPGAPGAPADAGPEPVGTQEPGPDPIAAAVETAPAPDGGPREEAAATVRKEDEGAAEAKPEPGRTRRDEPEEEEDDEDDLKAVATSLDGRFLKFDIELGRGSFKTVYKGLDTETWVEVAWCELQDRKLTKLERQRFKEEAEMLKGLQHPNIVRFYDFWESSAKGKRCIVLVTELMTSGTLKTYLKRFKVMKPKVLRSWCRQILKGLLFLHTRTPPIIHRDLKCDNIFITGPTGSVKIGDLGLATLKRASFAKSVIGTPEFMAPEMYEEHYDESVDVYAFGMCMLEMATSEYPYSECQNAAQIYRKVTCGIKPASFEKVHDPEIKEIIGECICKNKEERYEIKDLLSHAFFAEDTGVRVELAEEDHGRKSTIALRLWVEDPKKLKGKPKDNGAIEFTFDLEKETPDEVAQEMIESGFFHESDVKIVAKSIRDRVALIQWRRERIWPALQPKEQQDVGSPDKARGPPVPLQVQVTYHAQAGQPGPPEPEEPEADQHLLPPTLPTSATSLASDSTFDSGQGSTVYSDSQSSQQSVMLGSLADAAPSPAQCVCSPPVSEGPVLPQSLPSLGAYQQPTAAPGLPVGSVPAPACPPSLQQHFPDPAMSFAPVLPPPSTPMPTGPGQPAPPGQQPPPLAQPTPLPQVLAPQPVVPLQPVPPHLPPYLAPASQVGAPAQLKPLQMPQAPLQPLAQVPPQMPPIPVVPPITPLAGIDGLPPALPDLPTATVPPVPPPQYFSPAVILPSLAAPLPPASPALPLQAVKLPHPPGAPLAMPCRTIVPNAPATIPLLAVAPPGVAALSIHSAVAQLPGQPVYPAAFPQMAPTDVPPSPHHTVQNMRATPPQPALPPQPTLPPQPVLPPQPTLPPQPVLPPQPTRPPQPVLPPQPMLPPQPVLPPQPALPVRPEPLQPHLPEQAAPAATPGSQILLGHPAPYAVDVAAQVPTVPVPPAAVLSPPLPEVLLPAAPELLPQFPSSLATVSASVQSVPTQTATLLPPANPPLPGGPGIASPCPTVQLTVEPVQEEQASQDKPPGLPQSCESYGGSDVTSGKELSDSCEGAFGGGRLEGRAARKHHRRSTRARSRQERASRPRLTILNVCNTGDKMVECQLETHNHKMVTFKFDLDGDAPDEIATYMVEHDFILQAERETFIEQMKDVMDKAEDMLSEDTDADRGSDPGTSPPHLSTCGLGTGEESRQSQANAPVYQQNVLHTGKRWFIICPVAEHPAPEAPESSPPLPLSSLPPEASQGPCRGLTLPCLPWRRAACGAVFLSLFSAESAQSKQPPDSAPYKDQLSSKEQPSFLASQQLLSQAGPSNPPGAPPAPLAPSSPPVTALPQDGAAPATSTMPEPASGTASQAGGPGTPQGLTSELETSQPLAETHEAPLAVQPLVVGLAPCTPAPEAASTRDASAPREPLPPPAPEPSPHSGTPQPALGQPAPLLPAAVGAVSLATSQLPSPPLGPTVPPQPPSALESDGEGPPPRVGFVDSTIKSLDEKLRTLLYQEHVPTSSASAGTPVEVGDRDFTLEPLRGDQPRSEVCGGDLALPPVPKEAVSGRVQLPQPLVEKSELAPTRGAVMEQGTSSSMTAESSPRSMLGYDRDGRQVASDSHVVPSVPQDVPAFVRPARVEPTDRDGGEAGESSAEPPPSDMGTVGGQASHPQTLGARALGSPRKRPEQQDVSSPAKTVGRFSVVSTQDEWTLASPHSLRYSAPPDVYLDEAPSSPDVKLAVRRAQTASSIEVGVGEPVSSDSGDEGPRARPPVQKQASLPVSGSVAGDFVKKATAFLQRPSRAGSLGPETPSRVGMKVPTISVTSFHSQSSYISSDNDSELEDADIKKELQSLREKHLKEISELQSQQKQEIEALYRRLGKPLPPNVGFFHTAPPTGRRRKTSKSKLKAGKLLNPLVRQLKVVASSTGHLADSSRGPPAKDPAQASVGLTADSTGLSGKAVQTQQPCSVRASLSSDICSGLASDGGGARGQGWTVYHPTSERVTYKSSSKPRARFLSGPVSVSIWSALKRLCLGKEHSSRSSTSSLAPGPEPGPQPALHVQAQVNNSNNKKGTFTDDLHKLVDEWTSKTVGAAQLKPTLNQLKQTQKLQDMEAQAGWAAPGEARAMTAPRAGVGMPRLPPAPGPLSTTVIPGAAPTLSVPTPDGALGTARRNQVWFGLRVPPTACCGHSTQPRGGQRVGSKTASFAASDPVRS

[22] = molecular target: Mitogen-activated protein kinase 8 (Homo sapiens, UniProt P45983); assay: Selectivity interaction (KinomeScan (DiscoverX)) EUB0000316b MAPK8; settings: at 1 µM
[23] = molecular target: Mitogen-activated protein kinase kinase kinase 14 (Homo sapiens) (UniProt Q99558); assay: Selectivity interaction (KinomeScan (DiscoverX)) EUB0000316b MAP3K14; settings: at 1 µM
[24] = molecular target: T3, Gamma-aminobutyric acid receptor subunit alpha-1; assay: Selectivity interaction (GPCR panel (PDSP screen)) EUB0000316b GABRA1
[25] = molecular target: Cyclin-dependent kinase 4 (Homo sapiens) (UniProt P11802); assay: Selectivity interaction (KinomeScan (DiscoverX)) EUB0000316b CDK4; settings: at 1 µM
Sequence of Cyclin-dependent kinase 4 (Homo sapiens) (P11802 whole entry): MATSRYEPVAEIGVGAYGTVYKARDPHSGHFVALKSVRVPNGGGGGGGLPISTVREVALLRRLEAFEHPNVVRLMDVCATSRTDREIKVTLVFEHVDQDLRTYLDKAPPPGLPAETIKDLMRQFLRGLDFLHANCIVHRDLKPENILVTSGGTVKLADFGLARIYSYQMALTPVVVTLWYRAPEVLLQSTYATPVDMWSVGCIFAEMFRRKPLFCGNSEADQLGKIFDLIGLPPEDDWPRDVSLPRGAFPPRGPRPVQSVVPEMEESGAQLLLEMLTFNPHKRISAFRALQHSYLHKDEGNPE

[26] = molecular target: T7, Receptor-interacting serine/threonine-protein kinase 4 (Homo sapiens) (UniProt P57078); assay: Selectivity interaction (KinomeScan (DiscoverX)) EUB0000316b RIPK4; settings: at 1 µM
T7 sequence (whole entry): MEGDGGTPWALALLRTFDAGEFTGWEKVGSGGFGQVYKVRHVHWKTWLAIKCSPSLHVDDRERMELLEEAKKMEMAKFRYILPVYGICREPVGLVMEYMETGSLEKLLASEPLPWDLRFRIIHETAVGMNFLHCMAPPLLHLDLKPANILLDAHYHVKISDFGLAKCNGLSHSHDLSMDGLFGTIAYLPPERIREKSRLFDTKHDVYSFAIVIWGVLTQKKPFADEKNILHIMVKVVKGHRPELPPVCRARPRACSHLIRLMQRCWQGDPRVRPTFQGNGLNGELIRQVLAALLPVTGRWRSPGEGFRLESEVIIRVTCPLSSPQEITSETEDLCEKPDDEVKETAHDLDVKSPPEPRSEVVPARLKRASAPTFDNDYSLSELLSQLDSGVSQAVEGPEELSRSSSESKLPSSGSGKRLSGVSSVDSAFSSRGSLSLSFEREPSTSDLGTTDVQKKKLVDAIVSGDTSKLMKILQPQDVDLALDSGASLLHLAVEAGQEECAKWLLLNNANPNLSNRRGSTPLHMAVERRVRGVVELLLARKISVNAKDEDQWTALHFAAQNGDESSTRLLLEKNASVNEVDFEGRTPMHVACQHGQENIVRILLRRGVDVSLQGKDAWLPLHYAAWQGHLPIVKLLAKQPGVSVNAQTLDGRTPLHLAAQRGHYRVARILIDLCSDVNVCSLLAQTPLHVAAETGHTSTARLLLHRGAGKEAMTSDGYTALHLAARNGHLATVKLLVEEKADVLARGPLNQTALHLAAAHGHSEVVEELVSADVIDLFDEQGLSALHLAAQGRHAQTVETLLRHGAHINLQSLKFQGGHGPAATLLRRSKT

% of control [1]: 100%
% of control [2]: 100%
IC50 (Aurora kinase C): > 10 µM
IC50 [3]: > 10 µM
SMILES: O=C(NCCCN1CCOC1=O)c1cnc(NCc2cc(Br)ccc2Br)nc1NC1CCCC1

% of control [4]: 14.7%
% of control [5]: 30.2%
Ki (Histamine H3 receptor): > 10 µM
% of control [6]: 25.2%
% of control [7]: 29.5%
SMILES: Cc1cc(Nc2nccc(C)n2)cc(-c2cnc([C@@]3(O)CC[C@H](C(=O)O)C(C)(C)C3)s2)c1 [MRL-SYKi]

SMILES: N#CC1(c2ccccn2)CCN(Cc2cc(C(=O)O)c(=O)n3ccccc23)CC1 [MSD-M1PAM]
Ki [8]: > 10 µM

% of control [9]: 0%
% of control [10]: 32%
Ki [11]: 774 nM
Ki [12]: > 10 µM
% of control [13]: 33%
% of control [14]: 38%
% of control [15]: 20%
SMILES: Cc1ccc(-c2cnc([C@@]3(O)CC[C@H](C(=O)O)C(C)(C)C3)s2)cc1Nc1cccc(C(F)(F)F)n1 [MRL-SYKi-NC]

IC50 [16]: 826 nM
% of control [17]: 3%
% of control [18]: 9%
% of control [19]: 10%
SMILES: CN1CCN(c2ccc(OC(F)(F)F)c(Nc3ncc4c(n3)-c3c(c(C(N)=O)nn3CCO)CC4)c2)CC1 [ONVANSERTIB]

Ki [20]: > 10 µM
% of control [21]: 62%
% of control [22]: 63%
% of control [23]: 63%
Ki [24]: 1670 nM
% of control [25]: 63%
% of control [26]: 61%
SMILES: CC(=O)c1c(NS(C)(=O)=O)c2cc(-c3ccc(Cl)cc3)c(-c3ccc(Cl)cc3Cl)nc2n(C)c1=O [MRL-CB1-NC]
